We go through three compounds from paper PMC4596572, “Ligand Discovery for the Alanine-Serine-Cysteine Transporter (ASCT2, SLC1A5) from Homology Modeling and Virtual Screening” (PLoS Computational Biology, 2015).

For test [1], the target named is T1, ASCT2 mediated glutamine uptake in C8161 melanoma cells (Homo sapiens, UniProt Q15758).
T1 construct: endogenous in cells; host or cells: C8161 human melanoma cell line
T1 sequence (Q15758 1-541): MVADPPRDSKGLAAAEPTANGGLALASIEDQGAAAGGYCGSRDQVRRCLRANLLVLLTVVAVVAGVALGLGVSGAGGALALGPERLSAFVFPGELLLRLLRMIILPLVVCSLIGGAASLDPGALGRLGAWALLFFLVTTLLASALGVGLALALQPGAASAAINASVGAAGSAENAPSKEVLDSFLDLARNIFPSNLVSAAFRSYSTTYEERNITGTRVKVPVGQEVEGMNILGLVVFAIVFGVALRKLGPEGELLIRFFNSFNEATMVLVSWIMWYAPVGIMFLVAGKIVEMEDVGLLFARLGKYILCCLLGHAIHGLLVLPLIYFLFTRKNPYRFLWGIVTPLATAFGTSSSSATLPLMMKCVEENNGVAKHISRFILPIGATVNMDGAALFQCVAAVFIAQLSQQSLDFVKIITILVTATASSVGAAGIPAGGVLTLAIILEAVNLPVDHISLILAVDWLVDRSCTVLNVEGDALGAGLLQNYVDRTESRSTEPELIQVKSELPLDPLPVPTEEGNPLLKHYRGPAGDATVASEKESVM
Description: [3H]-L-glutamine uptake assay in C8161 cells. Format: cell-based. The conditions noted are these: 15 min, 37°C, n = 3. As to the method: We have previously shown that ASCT2 mediates glutamine uptake in C8161 human melanoma cells, and that blocking ASCT2 activity inhibits cell growth and viability (Methods). […] In the presence these compounds, [^3H]-L-glutamine uptake was decreased in a dose-dependent manner in C8161 cells, in agreement with their elicitation of current as activators and potential substrates (Fig 8A–8C).
Human melanoma cell line C8161 culture was performed as previously described. Media used was DMEM/F12 medium (Life Technologies) containing 5% (v/v) fetal bovine serum (FBS), penicillin-streptomycin solution (Sigma-Aldrich). Cells were maintained at 37°C in a fully humidified atmosphere containing 5% CO2. Inhibitors (chloroalanine, AOC and γ-FBP) were resuspended in H2O, with control cells treated with the appropriate concentrations of vehicle alone.
C8161 cells (1 × 10^5/well) were incubated with [^3H]-L-glutamine (400 nM; PerkinElmer) in MEM media (Life Technologies) for 15 min at 37°C in the presence or absence of each inhibitor. Cells were collected and transferred to filter paper using a 96-well plate harvester (Wallac PerkinElmer), dried, exposed to scintillation fluid and counts measured using a liquid scintillation counter (PerkinElmer).

In test [2] the test system is ASCT2 protein levels in C8161 cells. Nature of the test: Western blotting of ASCT2 protein levels. It is filed as cell-based, human. As to conditions: 5 mM, 48 hours. As to the method: To ensure these inhibitory effects were not due to changes in ASCT2 protein levels, we examined ASCT2 protein levels by Western blotting 48 hours after incubation with chloroalanine (5 mM), AOC (5 mM) or γ-FBP (5 mM) (Fig 8J). […] For example, γ-FBP is an inhibitor that deprives the cancer cells from nutrients and the activator Chloroalanine can potentially be further developed as a cytotoxic ligand.
Cells (5 × 10^5 per well) were seeded in 24 well plates, allowed to adhere overnight, and then incubated in the presence of 5 mM chloroalanine, AOC or γ-FBP for 48 hours. Cells were detached using Tryple and lysed in lysis buffer (50 μL; 20 mM Tris-HCl, 150 mM NaCl, 1% Triton X-100, 0.5% Na deoxycholate, 0.1% SDS) with protease inhibitor Cocktail III (Bioprocessing Biochemical, California). Protein was measured using micro-BCA method (Pierce) and loaded onto a 4–12% gel (Life Technologies), electrophoresed, and transferred to PVDF membrane. The membrane was blocked with 2.5% (w/v) BSA in PBS-Tween20, and incubated with primary (ASCT2, Cell Signaling; GAPDH, Abcam) and secondary antibodies. Secondary HRP-labeled antibodies (Millipore) were detected using chemiluminescence reagents (Pierce) on a Kodak imager (Kodak).
On the technique in general: In western blotting, separated proteins are transferred to a membrane and probed.

Test [3] has as its system C8161 human melanoma cells. Description: Annexin V/propidium iodide apoptosis assay by flow cytometry. As to conditions: 5 mM, 48 hours. It is filed as cell-based. As to the method:
Glutamine is a conditionally essential amino acid required for cancer cell growth, being used as fuel source for the TCA cycle, and a carbon and nitrogen source for macromolecule production. We therefore examined cell viability in the presence of chloroalanine (5 mM), AOC (5 mM) and γ-FBP (5 mM) using an MTT assay in C8161 cells (Methods).
Cells (5 × 10^5 per well) were seeded in 24 well plates, allowed to adhere overnight, and then incubated in the presence of 5 mM chloroalanine, AOC or γ-FBP for 48 hours. Cells were detached using Tryple and resuspended in 300 μL of binding buffer (HEPES-buffered PBS supplemented with 2.5 mM calcium chloride) with Annexin V-APC (BD) and incubated for 15 min in the dark at room temperature. Propidium iodide solution (5 μg/mL) was added, and the cells were analyzed using the BD LSRFortessa and FlowJo software.

A word on the IC50: it is the concentration needed to halve the response being measured. A high value points to lower potency. `NC1(C(=O)O)COC1` yielded an IC50 in test [1] of 10 to 15 mM. Besides, in test [2], the ASCT2 protein levels result was “no change”. Moreover, the “Apoptosis (early Annexin V+PI-, late Annexin V+PI+)” value (“Apoptosis” for short) in test [3] was “neither AOC nor γ-FBP led to a significant increase”.

`NC(CCl)C(=O)O` (stereo not drawn) [Chloroalanine] displayed an IC50 in test [1] of 9.2 mM. Further, the ASCT2 protein levels result in test [2] is reported as “reduced the levels of ASCT2 protein”. Besides, the “Apoptosis” value in test [3] was “significantly increased apoptosis”.

The compound `O=C(O)C1CC(Cc2ccccc2F)CN1` (stereo not drawn) [γ-FBP] displayed an IC50 in test [1] of 10 to 15 mM. Further, in test [2], the ASCT2 protein levels result is “no change”. The “Apoptosis” value in test [3] is listed as “neither AOC nor γ-FBP led to a significant increase”.
